In patent US9994590B2, “Substituted [1,2,4]triazolo[1,5-a]pyrazines as phosphodiesterase inhibitors” (Sunovion Pharamaceuticals Inc., priority 2012, dated 2018):
pIC50: −log10 of the molar value.

Molecular target: recombinant human PDE-10 enzyme (human PDE-10A) (Homo sapiens (Human), UniProt Q9Y233)
Test: human PDE-10 inhibition assay (Molecular Devices IMAP PDE Fluorescence Polarization, enzyme assay IC50)
Type: biochemical
Conditions: Fluorescein-labeled cAMP/cGMP substrate, 40-minute incubation at 37° C.
Method: In one embodiment, the compounds provided herein were assayed for their ability to inhibit human PDE-10A. In one embodiment, the activities of the compounds were determined using the Molecular Devices IMAP PDE Fluorescence Polarization assay using recombinant human PDE-10 enzyme expressed in a baculoviral system. Briefly, 10 μL of a compound (0.2 nM-20 μM) was added to either a 96-well half area black plate or a 384-well black plate along with 10 μL of Fluorescein-labeled cAMP/cGMP substrate as per manufacturer's instructions and 10 μL of PDE enzyme (activity 0.1 U). Following a 40-minute incubation at 37° C., 60 μL of IMAP binding reagent was added. The plate was then read on a Perkin Elmer Victor (480-535 nm). The data was analyzed using Prism Software (GraphPad Inc, San Diego, Calif.).

Chain of recombinant human PDE-10 enzyme (human PDE-10A) (Q9Y233 whole entry): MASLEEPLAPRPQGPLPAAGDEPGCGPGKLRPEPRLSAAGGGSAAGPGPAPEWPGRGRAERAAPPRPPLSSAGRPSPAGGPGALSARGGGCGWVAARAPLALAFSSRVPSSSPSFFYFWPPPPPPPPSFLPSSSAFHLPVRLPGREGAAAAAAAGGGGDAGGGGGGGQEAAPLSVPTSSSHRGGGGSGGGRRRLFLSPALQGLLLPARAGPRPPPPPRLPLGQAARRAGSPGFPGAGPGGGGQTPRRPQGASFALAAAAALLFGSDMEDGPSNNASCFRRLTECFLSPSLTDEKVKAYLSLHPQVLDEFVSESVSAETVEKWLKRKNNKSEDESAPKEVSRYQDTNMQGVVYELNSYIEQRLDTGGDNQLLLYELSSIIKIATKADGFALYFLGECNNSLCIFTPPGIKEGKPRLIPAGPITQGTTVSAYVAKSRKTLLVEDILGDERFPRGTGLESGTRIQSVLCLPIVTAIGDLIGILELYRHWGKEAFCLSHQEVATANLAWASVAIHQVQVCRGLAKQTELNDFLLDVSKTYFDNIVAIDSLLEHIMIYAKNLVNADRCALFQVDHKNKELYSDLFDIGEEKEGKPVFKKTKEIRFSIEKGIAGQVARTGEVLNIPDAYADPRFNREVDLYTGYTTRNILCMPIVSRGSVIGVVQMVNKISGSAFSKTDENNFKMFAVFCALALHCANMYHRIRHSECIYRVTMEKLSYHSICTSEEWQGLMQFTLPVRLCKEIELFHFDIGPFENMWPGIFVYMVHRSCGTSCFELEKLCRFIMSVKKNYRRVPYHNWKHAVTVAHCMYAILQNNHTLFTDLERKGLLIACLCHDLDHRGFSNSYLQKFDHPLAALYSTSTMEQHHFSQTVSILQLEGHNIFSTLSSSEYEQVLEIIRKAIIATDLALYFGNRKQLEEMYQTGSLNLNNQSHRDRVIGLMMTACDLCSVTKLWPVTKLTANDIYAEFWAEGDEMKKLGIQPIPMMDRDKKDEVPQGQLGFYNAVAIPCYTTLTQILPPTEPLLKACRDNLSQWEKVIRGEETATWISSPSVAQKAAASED

First: Clc1cccn2cc(C3CC3c3cn4cccc(Cl)c4n3)nc12 (stereo not drawn) [Compound 11]
Second: Clc1cccn2cc(C3CCC3c3cn4cccc(Cl)c4n3)nc12 (stereo not drawn) [Compound 23, 1,2-Bis(8-chloroimidazo[1,2-a]pyridin-2-yl)cyclobutane]
The pIC50 of the first is lower: under 6.30 for the first, 6.30 to 7.00 for the second. The second is the more potent here.

`Cc1ccn2cc(C3CC3c3nc4c(C)ncc(C)n4n3)nc2c1` (stereo not drawn) [Compound 12, 5,8-Dimethyl-2-(2-(7-methylimidazo[1,2-a]pyridin-2-yl)cyclopropyl)-[1,2,4]triazolo[1,5-a]pyrazine] and `COc1ccn2cc(C3CC3c3nc4c(C)ncc(C)n4n3)nc2c1` (stereo not drawn) [Compound 16] cannot be ordered by pIC50: under 6.30 for the first, under 6.30 for the second.

First: COc1ccn2c(C)c(C3CC3c3nc4c(C)ncc(C)n4n3)nc2c1 (stereo not drawn) [Compound 13]
Second: CCOc1ccn2c(C)c(C3CC3c3nc4c(C)ncc(C)n4n3)nc2c1 (stereo not drawn) [Compound 14]
The pIC50 of the first is higher: 6.30 to 7.00 for the first, under 6.30 for the second. The first is the more potent here.

`COc1cccn2c(C)c(C3CC3c3nc4c(C)ncc(C)n4n3)nc12` (stereo not drawn) [Compound 15] and `CCOc1cccn2cc(C3CC3c3nc4c(C)ncc(C)n4n3)nc12` (stereo not drawn) [Compound 17] fall in the same range of pIC50: 7.00 to 8.00 for the first, 7.00 to 8.00 for the second.

First: Cc1cc2nc(C3CC3c3nc4c(C)ncc(C)n4n3)cn2cc1F (stereo not drawn) [Compound 18]
Second: Cc1ncc(C)n2nc(C3CC3c3nc(-c4ccccc4)cn3C)nc12 (stereo not drawn) [Compound 19, 5,8-Dimethyl-2-(2-(1-methyl-4-phenyl-1H-imidazol-2-yl)cyclopropyl)-[1,2,4]triazolo[1,5-a]pyrazine]
The pIC50 of the first is lower: under 6.30 for the first, 7.00 to 8.00 for the second. The second is the more potent here.

First: Cn1c(C2CC2c2ccc3ccccc3n2)nc2c3cccnc3ccc21 (stereo not drawn) [Compound 20, 3-Methyl-2-(2-(quinolin-2-yl)cyclopropyl)-3H-imidazo[4,5-f]quinoline]
Second: Cn1c(C2CCC2c2nc3c4cccnc4ccc3n2C)nc2c3cccnc3ccc21 (stereo not drawn) [Compound 25, 1,2-Bis(3-methyl-3H-imidazo[4,5-f]quinolin-2-yl)cyclobutane]
The pIC50 of the first is higher: 6.30 to 7.00 for the first, under 6.30 for the second.

Compared with `Fc1ccn2cc(C3CCC3c3cn4cccc(Cl)c4n3)nc2c1` (stereo not drawn) [Compound 24, 8-Chloro-2-(2-(7-fluoroimidazo[1,2-a]pyridin-2-yl)cyclobutyl)imidazo[1,2-a]pyridine], `Cc1ncc(C)n2nc([C@H]3C[C@@H]3c3nc4c5cccnc5ccc4n3C)nc12` [Compound 28] is higher in pIC50: under 6.30 for the first, 6.30 to 7.00 for the second.

With `Cc1ncc(C)n2nc([C@@H]3C[C@H]3c3nc4c5cccnc5ccc4n3C)nc12` [Compound 29] the pIC50 was at least 8.00.
